According to ChEMBL document CHEMBL3885861, “Open TG-GATES”:

Species on record: Rattus norvegicus
Experiment: Open TG-GATES - Regimen: Single
Assay type: toxicity, organism-based, Sprague-Dawley
Parameters: regimen Single, gender Male, age 6 weeks
Conditions: in vivo, po, 300 mg/kg, route gavage, dose level Middle; for APTT / Bas / Eos / Fbg / Hb / Ht / Lym / MCH / MCHC / MCV / Mono / Neu / PT / Plat / RBC / Ret / WBC: tissue Blood; for KIDNEY_L / KIDNEY_R / KIDNEY_TOTAL: tissue Kidney; for LIVER: tissue Liver; for A/G / ALP / ALT / AST / BUN / CRE / Ca / Cl / DBIL / GLC / IP / K / LDH / Na / PL / RALB / TBIL / TC / TG / TP / gamma-GTP: tissue Plasma

`C[C@H]1O[C@H](O[C@H]2[C@H](O)[C@@H](O)[C@@H](O[C@H]3[C@H](O)[C@@H](O)C(O)O[C@@H]3CO)O[C@@H]2CO)[C@H](O)[C@@H](O)[C@@H]1N[C@H]1C=C(CO)[C@@H](O)[C@H](O)[C@H]1O` (some centres not stated) [ACARBOSE] was tested, and the TERMINAL_BW (3 h) was 199.8 g, the APTT (3 h) was 16.9 s and the Bas (3 h) was 0%. For the same compound, the Eos (3 h) was 0.8%, the Fbg (3 h) was 290.6 mg/dL and the Hb (3 h) was 13.5 g/dL. It also gave a Ht (3 h) of 41.4%, a Lym (3 h) of 77.8% and an MCH (3 h) of 21.2 pg. For the same compound, the MCHC (3 h) was 32.6%, the MCV (3 h) was 65.1 fL and the Mono (3 h) was 2.8%. It also gave a Neu (3 h) of 17.8%, a PT (3 h) of 13.4 s and a Plat (3 h) of 115.1 x10_4/uL. The RBC (3 h) was 636 x10_4/ul, the Ret (3 h) was 8.7% and the WBC (3 h) was 82.6 x10_2/uL. For the same compound, the KIDNEY_L (3 h) was 0.9 g, the KIDNEY_R (3 h) was 0.9 g and the KIDNEY_TOTAL (3 h) was 1.9 g. For the same compound, the LIVER (3 h) was 9 g, the A/G (3 h) was 0.9 and the ALP (3 h) was 1420.8 IU/L. The ALT (3 h) was 35.6 IU/L, the AST (3 h) was 75.4 IU/L and the BUN (3 h) was 9.8 mg/dL. It also gave a CRE (3 h) of 0.2 mg/dL, a Ca (3 h) of 10.9 mg/dL and a Cl (3 h) of 104.6 meq/L. For the same compound, the DBIL (3 h) was 0.004 mg/dL, the GLC (3 h) was 172.4 mg/dL and the IP (3 h) was 10 mg/dL. It also gave a K (3 h) of 4 meq/L, an LDH (3 h) of 67.8 IU/L and a Na (3 h) of 141.2 meq/L. For the same compound, the PL (3 h) was 140 mg/dL, the RALB (3 h) was 2.5 g/dL and the TBIL (3 h) was 0.066 mg/dL. It also gave a TC (3 h) of 79.8 mg/dL, a TG (3 h) of 51.6 mg/dL and a TP (3 h) of 5.2 g/dL. It also gave a gamma-GTP (3 h) of 1.2 IU/L, a TERMINAL_BW (6 h) of 198.7 g and an APTT (6 h) of 17 s. For the same compound, the Bas (6 h) was 0%, the Eos (6 h) was 0.8% and the Fbg (6 h) was 290.6 mg/dL. The Hb (6 h) was 13.2 g/dL, the Ht (6 h) was 40.6% and the Lym (6 h) was 75.8%. For the same compound, the MCH (6 h) was 20.8 pg, the MCHC (6 h) was 32.4% and the MCV (6 h) was 64 fL. The Mono (6 h) was 3%, the Neu (6 h) was 19.6% and the PT (6 h) was 13.5 s. It also gave a Plat (6 h) of 124.8 x10_4/uL, an RBC (6 h) of 635 x10_4/ul and a Ret (6 h) of 8.7%. The WBC (6 h) was 86.3 x10_2/uL, the KIDNEY_L (6 h) was 0.9 g and the KIDNEY_R (6 h) was 0.9 g. It also gave a KIDNEY_TOTAL (6 h) of 1.8 g, an LIVER (6 h) of 8.2 g and an A/G (6 h) of 0.9. It also gave an ALP (6 h) of 1441 IU/L, an ALT (6 h) of 35 IU/L and an AST (6 h) of 70 IU/L. The BUN (6 h) was 9.6 mg/dL, the CRE (6 h) was 0.2 mg/dL and the Ca (6 h) was 10.8 mg/dL. For the same compound, the Cl (6 h) was 104 meq/L, the DBIL (6 h) was 0.004 mg/dL and the GLC (6 h) was 160.4 mg/dL. For the same compound, the IP (6 h) was 10.5 mg/dL, the K (6 h) was 4 meq/L and the LDH (6 h) was 57 IU/L. It also gave a Na (6 h) of 141.4 meq/L, a PL (6 h) of 133.6 mg/dL and an RALB (6 h) of 2.5 g/dL. For the same compound, the TBIL (6 h) was 0.058 mg/dL, the TC (6 h) was 71 mg/dL and the TG (6 h) was 38.6 mg/dL. It also gave a TP (6 h) of 5.2 g/dL, a gamma-GTP (6 h) of 1 IU/L and a TERMINAL_BW (9 h) of 195.2 g. For the same compound, the APTT (9 h) was 17 s, the Bas (9 h) was 0.4% and the Eos (9 h) was 0.8%. It also gave a Fbg (9 h) of 292.8 mg/dL, a Hb (9 h) of 13.5 g/dL and a Ht (9 h) of 42%. It also gave a Lym (9 h) of 80.4%, an MCH (9 h) of 20.7 pg and an MCHC (9 h) of 32%. The MCV (9 h) was 64.8 fL, the Mono (9 h) was 2.2% and the Neu (9 h) was 15.6%. It also gave a PT (9 h) of 13.4 s, a Plat (9 h) of 119.8 x10_4/uL and an RBC (9 h) of 650.2 x10_4/ul. The Ret (9 h) was 8.7%, the WBC (9 h) was 84.7 x10_2/uL and the KIDNEY_L (9 h) was 1 g. The KIDNEY_R (9 h) was 0.9 g, the KIDNEY_TOTAL (9 h) was 1.9 g and the LIVER (9 h) was 7.7 g. For the same compound, the A/G (9 h) was 0.9, the ALP (9 h) was 1353.2 IU/L and the ALT (9 h) was 36.8 IU/L. For the same compound, the AST (9 h) was 76 IU/L, the BUN (9 h) was 8.6 mg/dL and the CRE (9 h) was 0.2 mg/dL. It also gave a Ca (9 h) of 10.3 mg/dL, a Cl (9 h) of 105.4 meq/L and a DBIL (9 h) of 0 mg/dL. For the same compound, the GLC (9 h) was 169.8 mg/dL, the IP (9 h) was 10.7 mg/dL and the K (9 h) was 3.8 meq/L. For the same compound, the LDH (9 h) was 61 IU/L, the Na (9 h) was 141.4 meq/L and the PL (9 h) was 131.4 mg/dL. The RALB (9 h) was 2.4 g/dL, the TBIL (9 h) was 0.06 mg/dL and the TC (9 h) was 77 mg/dL. It also gave a TG (9 h) of 36.2 mg/dL, a TP (9 h) of 5.2 g/dL and a gamma-GTP (9 h) of 1.2 IU/L. It also gave a TERMINAL_BW (24 h) of 210.8 g, an APTT (24 h) of 17.1 s and a Bas (24 h) of 0%. For the same compound, the Eos (24 h) was 1%, the Fbg (24 h) was 248.4 mg/dL and the Hb (24 h) was 13.1 g/dL. For the same compound, the Ht (24 h) was 40.2%, the Lym (24 h) was 76% and the MCH (24 h) was 21.3 pg. The MCHC (24 h) was 32.6%, the MCV (24 h) was 65.2 fL and the Mono (24 h) was 3.4%. It also gave a Neu (24 h) of 18.8%, a PT (24 h) of 13.3 s and a Plat (24 h) of 121 x10_4/uL. The RBC (24 h) was 617.4 x10_4/ul, the Ret (24 h) was 7.8% and the WBC (24 h) was 102.2 x10_2/uL. It also gave a KIDNEY_L (24 h) of 0.9 g, a KIDNEY_R (24 h) of 0.9 g and a KIDNEY_TOTAL (24 h) of 1.8 g. For the same compound, the LIVER (24 h) was 9.9 g, the A/G (24 h) was 0.9 and the ALP (24 h) was 1736 IU/L. For the same compound, the ALT (24 h) was 42.2 IU/L, the AST (24 h) was 71.8 IU/L and the BUN (24 h) was 13.4 mg/dL. It also gave a CRE (24 h) of 0.2 mg/dL, a Ca (24 h) of 10.9 mg/dL and a Cl (24 h) of 104.8 meq/L. It also gave a DBIL (24 h) of 0.012 mg/dL, a GLC (24 h) of 176.4 mg/dL and an IP (24 h) of 8 mg/dL. The K (24 h) was 3.9 meq/L, the LDH (24 h) was 60.6 IU/L and the Na (24 h) was 142.6 meq/L. The PL (24 h) was 134.8 mg/dL, the RALB (24 h) was 2.6 g/dL and the TBIL (24 h) was 0.062 mg/dL. For the same compound, the TC (24 h) was 71.2 mg/dL, the TG (24 h) was 74 mg/dL and the TP (24 h) was 5.4 g/dL. It also gave a gamma-GTP (24 h) of 1 IU/L.
